Results as given in BindingDB's records for doi:10.1021/acsmedchemlett.1c00445 (Janssen Research & Development, 2022).

Assay: Inhibition of human amyloid beta (1 to 42) in human SKNBE2 cells expressing wild-type amyloid precursor protein hAPP695 incubated for 18 hrs by sandwich ELISA

Row | SMILES | IC50
1 | C[C@@]1(c2cc(NC(=O)c3ccc(C#N)cn3)ccc2F)Cn2c(C#N)cnc2C(N)=N1 | 3.3 nM
2 | Cc1nc(C(=O)Nc2ccc(F)c([C@]3(C)Cn4nc(C#N)cc4C(N)=N3)c2)co1 | 4.8 nM
3 | COc1cnc(C(=O)Nc2ccc(F)c([C@]3(C)Cn4nc(C#N)cc4C(N)=N3)c2)cn1 | 1.3 nM
4 | C[C@@]1(c2cc(NC(=O)c3ccc(C#N)cn3)ccc2F)Cn2cc(C#N)nc2C(N)=N1 | 8.5 nM
5 | C[C@@]1(c2cc(NC(=O)c3ccc(F)cn3)ccc2F)Cn2c(C#N)cnc2C(N)=N1 | 13 nM
6 | C[C@@]1(c2cc(NC(=O)c3ccc(Cl)cn3)ccc2F)Cn2c(C#N)cnc2C(N)=N1 | 3.6 nM
7 | COc1cnc(C(=O)Nc2ccc(F)c([C@]3(C)Cn4c(C#N)cnc4C(N)=N3)c2)cn1 | 6.3 nM
8 | C[C@@]1(c2cc(NC(=O)c3ccc(C#N)cn3)ccc2F)Cn2nc(C#N)cc2C(N)=N1 | 1 nM
9 | C[C@@]1(c2cc(NC(=O)c3ccc(F)cn3)ccc2F)Cn2nc(C#N)cc2C(N)=N1 | 2.6 nM
10 | C[C@@]1(c2cc(NC(=O)c3ccc(OC(F)F)cn3)ccc2F)Cn2nc(C#N)cc2C(N)=N1 | 1 nM
11 | C[C@@]1(c2cc(NC(=O)c3cnc(C(F)F)cn3)ccc2F)Cn2nc(C#N)cc2C(N)=N1 | 2.5 nM
12 | C[C@@]1(c2cc(NC(=O)c3cnc(OCF)cn3)ccc2F)Cn2nc(C#N)cc2C(N)=N1 | 1.2 nM
